≈ marks a conversion by molar mass, not a printed value. Entries after “also recorded” stand apart in the source; their conditions may differ. Like-named read-outs stand apart in the source and are kept apart here.
Key:
[1] = Stability of the compound over time; type: physicochemical
ERCC1-XPF complex = target: T1, ERCC1-XPF complex (Homo sapiens, UniProt Q92889); experiment: Steady-state intrinsic tryptophan fluorescence quenching binding assay
T1 construct: His6; made in house; host or cells: E. coli BL21 (DE3)
T1 sequence (Q92889 1-916): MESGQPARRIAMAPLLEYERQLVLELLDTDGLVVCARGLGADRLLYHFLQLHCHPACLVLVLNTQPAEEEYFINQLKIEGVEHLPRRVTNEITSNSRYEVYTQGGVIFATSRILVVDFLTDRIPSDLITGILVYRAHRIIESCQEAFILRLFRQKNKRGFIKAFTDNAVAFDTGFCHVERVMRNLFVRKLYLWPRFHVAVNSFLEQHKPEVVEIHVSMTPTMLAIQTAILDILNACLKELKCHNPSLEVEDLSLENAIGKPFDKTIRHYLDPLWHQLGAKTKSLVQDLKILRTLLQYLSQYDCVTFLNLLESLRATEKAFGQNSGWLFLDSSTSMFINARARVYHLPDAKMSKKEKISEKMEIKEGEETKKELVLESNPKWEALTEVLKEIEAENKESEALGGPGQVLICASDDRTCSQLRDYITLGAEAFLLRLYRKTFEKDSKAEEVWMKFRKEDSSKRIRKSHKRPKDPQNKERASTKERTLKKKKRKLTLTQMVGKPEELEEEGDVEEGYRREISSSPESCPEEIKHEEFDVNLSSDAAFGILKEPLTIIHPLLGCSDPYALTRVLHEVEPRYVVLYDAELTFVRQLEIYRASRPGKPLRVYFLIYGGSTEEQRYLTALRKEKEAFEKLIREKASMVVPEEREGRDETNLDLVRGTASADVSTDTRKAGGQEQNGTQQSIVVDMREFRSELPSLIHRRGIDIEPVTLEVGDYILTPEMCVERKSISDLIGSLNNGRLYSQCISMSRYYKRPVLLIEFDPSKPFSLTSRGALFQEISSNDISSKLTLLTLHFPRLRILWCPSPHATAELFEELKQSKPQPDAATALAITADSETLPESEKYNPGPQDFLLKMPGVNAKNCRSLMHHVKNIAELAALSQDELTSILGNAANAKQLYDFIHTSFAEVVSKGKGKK
Experimental: Steady-state fluorescence spectra were measured at room temperature on a Perkin-Elmer LS-55 spectrofluorometer (Freemont, Calif.) with 5 nm spectral resolution for excitation and emission using 30-80 nM solution of purified recombinant ERCC1-XPF protein complex. […] In studying the effects of inhibitors on protein fluorescence intensities, additions to protein samples were made from inhibitors stock solutions, keeping the protein dilution below 3%.

ERCC1-XPF = target: T2, ERCC1-XPF (Homo sapiens, UniProt Q92889); experiment: Microplate fluorescence incision assay of ERCC1-XPF endonuclease activity; type: biochemical; conditions: for inhibition of ERCC1-XPF endonuclease activity (in words): compounds 10 μM each
T2 construct: His6; made in house; host or cells: E. coli BL21 (DE3)
T2 sequence (Q92889 1-916): T1 sequence (Q92889 1-916)
Description: This assay has been previously described (29), and utilizes a stem-loop substrate (composed of a 10mer-duplex stem and a 20mer-oligodT single-strand loop), labelled on the 5′-terminus with 6-FAM and 3′ with the quencher dabcyl.
Human ERCC1-XPF wild-type protein was obtained as previously described (29). Basically, the recombinant protein was expressed from a bicistronic plasmid (provided by Dr. Richard Wood, University of Texas MD Anderson Cancer Center, Smithville, Tex.) in the E. coli BL21 (DE3) strain. Since both XPF and ERCC1 contained a polyhistidine (His-6) tag, the proteins extracted from E. coli were incubated with a ProBond Nickel-Chelating Resin (Thermo Fisher Scientific). Protein eluted from the Ni affinity column was subsequently loaded into a Hi-trap heparin column (GE Healthcare). Fractions recovered from the heparin column that contained ERCC1-XPF were dialyzed, concentrated and stored at −80° C. in 10 mM HEPES pH 7.4, 2.5 mM p-mercaptoethanol, 0.01% CHAPS, 0.25 mM EDTA, 50% glycerol and 25 mM NaCl.
A previously described protocol (2,29) was followed.

HCT116 cells [2] = experiment: Cellular repair of UV-induced cyclobutane pyrimidine dimers (immunofluorescence); type: cell-based, human; conditions: 8 J/m^2 UV-C, up to 24 h post-irradiation
Experimental: Protocol of Mirzayans et al. was followed with minor modifications (30). Approximately 1×10^5 HCT116 cells were seeded on each coverslip and allowed to attach overnight. Medium was then removed and cells were treated for one hour with the desired compound. The medium was removed, and cells were exposed to 8 J/m^2 UV-C radiation (G15T8 254 nm lamp, Ushio America Inc, Cypress, Calif.) followed by adding fresh medium containing the compound. Plates were incubated at 37° C. for different periods of time up to 24 hours and fixed in 50:50 methanol/1× phosphate-buffered saline (PBS) solution, followed by replacing the methanol/PBS solution with 100% methanol and incubation in −20° C. After 20 minutes, methanol was removed, and cells were treated with PBS for 5 minutes in room temperature. After fixing, cells were permeabilized in 0.5% Triton/PBS and washed with PBS, denatured in 2 N HCl, and neutralized by twice washing with 0.1 M borate buffer pH 8.5. Cells on cover slips were washed once with PBS followed by blocking with 5% non-fat dry milk/PBS for 30 minutes. Mouse anti-thymine dimer monoclonal antibody (Cat. No. MC-062, Kamiya Biomedical Company, Seattle, Wash.) was applied to the cover slips for one hour in the dark and at room temperature. Cells were then washed with PBS containing 0.1% Tween-20 and incubated with rabbit anti-mouse IgG-Alexafluor antibody (Invitrogen, Carlsbad, Calif.) followed by two washes with PBS/(0.1%)Tween-20. Cells on coverslips were then washed with PBS, rinsed with water, and mounted on slides using DAPI glycerol mounting solution. Slides were kept at 4° C. before fluorescent microscopic evaluation and measurement of fluorescence intensity with MetaXpress Version: 6.2.1.704 software (Molecular Devices, Sunnyvale, Calif.).
To test for inhibition of nucleotide excision repair, we monitored the cellular removal of UVC-induced cyclobutane pyrimidine dimers (CPDs) in HCT116 cells over a 24-hour period using an immunochemical assay.

[3] = ADME screening: solubility; type: physicochemical; conditions: Table 8
[4] = ADME screening: cell permeability and efflux ratio; conditions: for Cell permeability (Mean recovery %) (in words): Table 8; for efflux ratio: not told
[5] = Microsomal stability in vitro (human liver microsomes); conditions: for Microsomal stability in vitro CLint (in words): Table 8
[6] = Hepatocyte stability in vitro; type: in vitro ADME; conditions: Table 8
HCT116 cells [7] = experiment: Cytotoxicity profile: crystal violet viability assay (and colony forming assay); type: cell-based, human; conditions: 5 μM, 3 days exposure, crystal violet
Experimental: Crystal violet viability assays were carried out to assess the cellular toxicity of these compounds to HCT116 cells and to choose relatively non-cytotoxic concentrations to be further utilised in sensitizing cells to UV radiation or cyclophosphamide.
The beneficial effect is especially visible at a concentration of 5.0 μM. At higher concentrations, both compounds show an equal cytotoxic effect (FIG. 15).

[8] = system: interaction between ERCC1 and XPF; conditions: in vitro; cited from earlier work
serum proteins = experiment: ADME screening: serum protein binding; type: in vitro ADME; conditions: Table 8
cancer cells = conditions: cited from earlier work
HCT116 cells [9] = experiment: Clonogenic survival assay, UV treatment; type: cell-based, human; conditions: 254 nm UV 0-10 J/m^2; compound 0.5-4 μM
Experimental: UV treatment: HCT116 cells (100-800 cells depending on the UV dose) were plated in triplicate in 60-mm petri dishes. The cells were incubated overnight at 37° C. in a humidified atmosphere containing 5% CO2 to allow for cell attachment. […] Medium was removed again, and cells were exposed to increasing doses (0-10 J/m^2) of UV-C radiation and then incubated for a further 10 days in the presence of inhibitor at 37° C. in a 5% CO2 atmosphere to allow for colony formation. After this period plates were stained with crystal violet and colonies were counted using a Colcount instrument (Oxford Optronix, Abingdon UK). Finally, plating efficiency and surviving fraction were calculated.

[10] = system: five CYP450 enzymes (CYP1A2, CYP2C9, CYP2C19, CYP2D6, CYP3A4-M); experiment: ADME screening: CYP inhibition (five CYP450 enzymes); conditions: human
[11] = system: five CYP450 tested enzymes; experiment: as above; conditions: Table 8
HCT116 cells [12] = experiment: Clonogenic survival assay, cyclophosphamide treatment; type: cell-based, human; conditions: cyclophosphamide 0-300 μM; compound 1-4 μM
Experimental: Plates were incubated for another 8 days at 37° C. in a 5% CO2 atmosphere for colony formation. After this period plates were stained with crystal violet, colonies were counted, and plating efficiency and surviving fraction were calculated.

COc1ccc2nc3cc(Cl)ccc3c(Nc3ccc(O)c(CN4CCN(Cc5cccc(C)c5)CC4)c3)c2c1 [Compound A2, 4-((6-Chloro-2-methoxyacridin-9-yl)amino)-2-((4-(3-methylbenzyl)piperazin-1-yl)methyl)phenol]
stability over time (in words) [1]: instability over time

COc1ccc2nc3cc(Cl)ccc3c(Nc3ccc(O)c(CN4CCN(C5CCCCC5)CC4)c3)c2c1 [Compound A3, 4-((6-Chloro-2-methoxyacridin-9-yl)amino)-2-((4-cyclohexylpiperazin-1-yl)methyl)phenol]
Kd (ERCC1-XPF complex; Table 6, read-out: Kd ± SD): 145 ± 5 nM
IC50 (ERCC1-XPF; Table 6, at least three experiments of Vo versus concentration, 30 minutes incubation, 5% DMSO, read-out: IC50 ± SD): 380 ± 100 nM
inhibition of ERCC1-XPF endonuclease activity (in words) (ERCC1-XPF): marked capacity to inhibit; also recorded: potent inhibitors

COc1ccc2nc3cc(Cl)ccc3c(Nc3ccc(O)c(CN4CCN(c5ccc(Cl)c(Cl)c5)CC4)c3)c2c1 [Compound A5, 4-((6-Chloro-2-methoxyacridin-9-yl)amino)-2-((4-(3,4-dichlorophenyl)piperazin-1-yl)methyl)phenol]
quenching of protein fluorescence at 330 nm (ERCC1-XPF complex; 2 μM compound, excitation 295 nm): 3±1%
inhibition of ERCC1-XPF endonuclease activity (in words) (ERCC1-XPF): very limited inhibition
inhibition of cellular removal of CPDs / thymidine dimers (in words) (HCT116 cells [2]): failed to inhibit the cellular removal of CPDs

COc1ccc2nc3cc(Cl)ccc3c(Nc3cc(CN4CCCC4)c(O)c(CN4CCCC4)c3)c2n1 [Compound D4, pyronaridine, reference compound]
Kd (ERCC1-XPF complex; Table 7, read-out: Kd protein): 150 ± 10 nM
Solubility (in words) [3]: Highly soluble
Cell permeability (Mean recovery %) (in words) [4]: Low (common)
IC50 (ERCC1-XPF; Table 7, at least three experiments of Vo versus concentration, read-out: IC50): 321 ± 22 nM
inhibition of ERCC1-XPF endonuclease activity (in words) (ERCC1-XPF): potent inhibitor; also recorded: strong inhibitory effect
LogD (rating) (ADME screening: LogD; Table 8): Good
logD (ADME screening: LogD; pH 7.4): 2.31
Microsomal stability in vitro CLint (in words) [5]: Moderate

COc1ccc2nc3cc(Cl)ccc3c(Nc3ccc(O)c(CN4CCN(C)CC4)c3)c2c1 [Compound F06, 4-((6-Chloro-2-methoxyacridin-9-yl)amino)-2-((4-methylpiperazin-1-yl)methyl)phenol, reference compound]
Kd (ERCC1-XPF complex; Table 6, read-out: Kd ± SD): 140 ± 5 nM
Kd (ERCC1-XPF complex; Table 7, read-out: Kd protein): 140 ± 5 nM
Hepatocyte stability in vitro CLint (in words) [6]: (medium clearance)
CLint scaled ([6]; hepatocytes): < 17.8 mL/min/kg
Solubility (in words) [3]: (partially soluble)
solubility ([3]; <1.56 means below lower limit of quantilation): 8.13 µM (≈ 3.76 µg/mL)
Cell permeability (Mean recovery %) (in words) [4]: Low (common)
efflux ratio [4]: > 2
efflux ratio ([4]; efflux ratio): 11.2
cells survived (HCT116 cells [7]): about 35%
effect on the interaction between ERCC1 and XPF (in words) [8]: repressed the interaction between ERCC1 and XPF in vitro
Serum protein binding (% bound) (serum proteins): (99.9) % bound
Serum protein binding (in words) (serum proteins): Strong binding
IC50 (ERCC1-XPF): 1860 nM
IC50 (ERCC1-XPF; Table 7, at least three experiments of Vo versus concentration): 1860 ± 250 nM
inhibition of ERCC1-XPF endonuclease activity (in words) (ERCC1-XPF): marked capacity to inhibit
IC50 (ERCC1-XPF; read-out: IC50 of ERCC1-XPF endonuclease activity, full-length ERCC1-XPF, 30 minutes incubation, 5% DMSO): 1860 ± 250 nM
IC50 (ERCC1-XPF; read-out: IC50 ± SD, Table 6, at least three experiments of Vo versus concentration, 30 minutes incubation, 5% DMSO): 1860 ± 250 nM
sensitization of cancer cells to MMC and cisplatin (in words) (cancer cells): sensitized cancer cells to MMC and cisplatin
LogD (rating) (ADME screening: LogD; Table 8): Good
LogD (remark in the LogD row) (ADME screening: LogD; Table 8): (partially soluble)
logD (ADME screening: LogD; Table 8): 3.86
log D (ADME screening: LogD; pH 7.4): 3.86
Microsomal stability in vitro CLint (in words) [5]: high
CLint scaled ([5]; human, liver microsomes): 53.7 mL/min/kg
sensitisation to UV radiation, clonogenic survival (in words) (HCT116 cells [9]): modest sensitisation capacity
IC50 [10]: ≥ 1000 nM
CVP inhibition (5 enzyme) (rating) [11]: Moderate

CN1CCN(Cc2cc(N)ccc2O)CC1 [Gen B4]
inhibition of ERCC1-XPF endonuclease activity (in words) (ERCC1-XPF): complete loss of inhibition

CN1CCN(Cc2cc(Nc3c4ccc(Cl)cc4nc4ccc(O)cc34)ccc2O)CC1 [Gen B5]
inhibition of ERCC1-XPF endonuclease activity (in words) (ERCC1-XPF): marked capacity to inhibit

COc1ccc2nc3cc(Cl)ccc3c(Nc3ccc(O)c(CN4CCN(CCNc5ccccc5)CC4)c3)c2c1 [Gen C-5, 4-((6-Chloro-2-methoxyacridin-9-yl)amino)-2-((4-(2-(phenylamino)ethyl)piperazin-1-yl)methyl)-phenol]
sensitisation to cyclophosphamide, clonogenic survival (in words) (HCT116 cells [12]): no significant sensitisation effect

From patent publication US20220306603A1, “TARGETING DNA REPAIR IN TUMOR CELLS VIA INHIBITION OF ERCC1-XPF” (The Governors of the University of Alberta, priority 2019, published 2022)
